Several values for one entry are separate records, joined by “and”; a condition that tells them apart may be missing. Identical values can stand only once. Toxic doses and inconclusive results are not listed.

17 compounds from PubChem BioAssay AID248 (DTP/NCI, 2004) can be followed below.

In the assay the test system is L1210 leukemia ip in BDF1 mice, survival T/C. The assay is described as follows: NCI In Vivo Anticancer Drug Screen. Data for tumor model L1210 Leukemia (intraperitoneal) in B6D2F1 (BDF1) mice. The settings on record: endpoint: mean survival time, higher = longer survival. The method in brief:
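Each compound was tested against a transplantable tumor grown in mice. The endpoint was survival, with treated animals benchmarked against vehicle controls as a simple ratio.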

The mark [1] stands for this setting: dose: 100.0 mg/kg/injection, schedule: Q04DX003 (ip), vehicle: saline with Tween-80.
Setting [2] is: dose: 200.0 mg/kg/injection, schedule: Q04DX003 (ip), vehicle: saline with Tween-80.
[3] abbreviates: dose: 400.0 mg/kg/injection, schedule: Q04DX003 (ip), vehicle: saline with Tween-80.
[4] abbreviates: dose: 100.0 mg/kg/injection, schedule: Q01DX001 (ip), vehicle: other.
Where [5] appears, read: dose: 200.0 mg/kg/injection, schedule: Q01DX001 (ip), vehicle: other.
[6] abbreviates: dose: 75.0 mg/kg/injection, schedule: Q01DX001 (ip), vehicle: saline.
Setting [7] is: dose: 150.0 mg/kg/injection, schedule: Q01DX001 (ip), vehicle: saline.
Setting [8] is: dose: 100.0 mg/kg/injection, schedule: Q04DX003 (ip), vehicle: Klucel (hydroxypropylcellulose) (HPC).
The mark [9] stands for this setting: dose: 200.0 mg/kg/injection, schedule: Q04DX003 (ip), vehicle: Klucel (hydroxypropylcellulose) (HPC).
Where [10] appears, read: dose: 400.0 mg/kg/injection, schedule: Q04DX003 (ip), vehicle: Klucel (hydroxypropylcellulose) (HPC).

On to `O=C1c2ccccc2Cc2ccc(-c3ccccc3)cc21`, for which the T/C by setting is: (dose: 50.0 mg/kg/injection, schedule: Q01DX009 (ip), vehicle: saline with Tween-80) 92 % of control; (dose: 100.0 mg/kg/injection, schedule: Q01DX009 (ip), vehicle: saline with Tween-80) 95 % of control; (dose: 200.0 mg/kg/injection, schedule: Q01DX009 (ip), vehicle: saline with Tween-80) 89 % of control.
`COc1ccc(CCNC(=O)c2ccc(Cl)c(Cl)c2)cc1OC`: the T/C is 100 % of control (dose: 25.0 mg/kg/injection, schedule: Q04DX002 (ip), vehicle: saline with Tween-80); 96 % of control (dose: 50.0 mg/kg/injection, schedule: Q04DX002 (ip), vehicle: saline with Tween-80); 106 % of control and 107 % of control (dose: 100.0 mg/kg/injection, schedule: Q04DX002 (ip), vehicle: saline with Tween-80).
`O=S(=O)(/C=N\N=P(c1ccccc1)(c1ccccc1)c1ccccc1)c1ccccc1-c1ccccc1`: the T/C reads like this: under setting [1], 109 % of control; under setting [2], 98 % of control; under setting [3], 93 % of control.
As to `Cc1cc(N(CCCl)CCCl)ccc1C=Nc1ccc(-c2csc(Cc3ccccc3)n2)cc1`, the T/C is 105 % of control (dose: 50.0 mg/kg/injection, schedule: Q01DX001 (ip), vehicle: carboxymethylcellulose (CMC)); 103 % of control (dose: 100.0 mg/kg/injection, schedule: Q01DX001 (ip), vehicle: carboxymethylcellulose (CMC)); 116 % of control (dose: 200.0 mg/kg/injection, schedule: Q01DX001 (ip), vehicle: carboxymethylcellulose (CMC)); 97 % of control (dose: 400.0 mg/kg/injection, schedule: Q01DX001 (ip), vehicle: carboxymethylcellulose (CMC)).
As for `CCC(=O)OC1(c2ccccc2)CCN(C2CC2)CC1`, the T/C was 92 % of control (dose: 25.0 mg/kg/injection, schedule: Q01DX001 (ip), vehicle: Klucel (hydroxypropylcellulose) (HPC)); 97 % of control (dose: 50.0 mg/kg/injection, schedule: Q01DX001 (ip), vehicle: Klucel (hydroxypropylcellulose) (HPC)); 100 % of control (dose: 100.0 mg/kg/injection, schedule: Q01DX001 (ip), vehicle: Klucel (hydroxypropylcellulose) (HPC)).
In the case of `CC(=O)Oc1ccc2c(=O)c(-c3ccccc3)c(C)oc2c1`, the T/C is, setting by setting: under setting [4], 108 % of control; under setting [1], 100 % of control; under setting [5], 111 % of control; under setting [2], 108 % of control; (dose: 400.0 mg/kg/injection, schedule: Q01DX001 (ip), vehicle: other) 94 % of control; under setting [3], 105 % of control.
On to `Cc1ccc(N=Nc2sc(N)nc2C)c(C)c1`, for which the T/C was 97 % of control under setting [6] and 103 % of control under setting [7].
For `CCOC(=O)C1C(=O)C(N=Nc2ccc(-c3ccc(N=NC4C(=O)C(C(=O)OCC)C(c5ccc(O)c(OC)c5)C(C(=O)OCC)C4=O)cc3)cc2)C(=O)CC1c1ccc(O)c(OC)c1` (centres undefined), the T/C by setting is: under setting [4], 96 % of control; under setting [5], 103 % of control.
`CCCCCCCN(CCCCCCC)CC(O)c1cc2ccccc2c2cnccc12` (centres undefined): the T/C was 98 % of control (dose: 100.0 mg/kg/injection, schedule: Q01DX009 (ip), vehicle: other); 91 % of control under setting [8]; 97 % of control (dose: 200.0 mg/kg/injection, schedule: Q01DX009 (ip), vehicle: other); 98 % of control under setting [9]; 93 % of control under setting [10].
For `CCCCCCCCCCCC(=O)Nc1ccccc1`, the T/C (dose: 12.5 mg/kg/injection, schedule: Q01DX009 (ip), vehicle: Klucel (hydroxypropylcellulose) (HPC)) was 92 % of control; the T/C (dose: 25.0 mg/kg/injection, schedule: Q01DX009 (ip), vehicle: Klucel (hydroxypropylcellulose) (HPC)) is 90 % of control; the T/C (dose: 50.0 mg/kg/injection, schedule: Q01DX009 (ip), vehicle: Klucel (hydroxypropylcellulose) (HPC)) is 110 % of control.
With `Nc1ccccc1CC(C(=O)O)c1ccc2c(c1)OCO2` (centres undefined), the T/C is 105 % of control under setting [6]; 108 % of control (dose: 75.0 mg/kg/injection, schedule: Q01DX009 (ip), vehicle: acetone); 94 % of control under setting [7]; 103 % of control (dose: 150.0 mg/kg/injection, schedule: Q01DX009 (ip), vehicle: acetone); 89 % of control (dose: 300.0 mg/kg/injection, schedule: Q01DX001 (ip), vehicle: saline); 103 % of control (dose: 300.0 mg/kg/injection, schedule: Q01DX009 (ip), vehicle: acetone).
On to `CC(C)N=Cc1ccccc1O.CC(C)N=Cc1ccccc1O.[Co]`, for which the T/C was 108 % of control (dose: 100.0 mg/kg/injection, schedule: Q01DX009 (ip), vehicle: saline sonified); 103 % of control under setting [8]; 100 % of control (dose: 200.0 mg/kg/injection, schedule: Q01DX009 (ip), vehicle: saline sonified); 99 % of control under setting [9]; 100 % of control under setting [10].
Regarding `FC(F)(F)c1ccc2c(c1)N(CCCN1CC[N+]3(CCOCC3)CC1)c1ccccc1S2`, the T/C reads like this: (dose: 6.25 mg/kg/injection, schedule: Q01DX009 (ip), vehicle: saline) 97 % of control; (dose: 12.5 mg/kg/injection, schedule: Q01DX009 (ip), vehicle: saline) 95 % of control; (dose: 12.5 mg/kg/injection, schedule: Q04DX003 (ip), vehicle: saline) 114 % of control; (dose: 25.0 mg/kg/injection, schedule: Q04DX003 (ip), vehicle: saline) 91 % of control.
For the compound `Cn1c2c(c(=O)n(C)c1=O)C(C(=O)O)CC(=O)N2` (centres undefined), the T/C reads like this: (dose: 100.0 mg/kg/injection, schedule: Q01DX009 (ip), vehicle: Klucel (hydroxypropylcellulose) (HPC)) 103 % of control; under setting [8], 103 % of control; (dose: 200.0 mg/kg/injection, schedule: Q01DX009 (ip), vehicle: Klucel (hydroxypropylcellulose) (HPC)) 102 % of control; under setting [9], 102 % of control; (dose: 400.0 mg/kg/injection, schedule: Q01DX009 (ip), vehicle: Klucel (hydroxypropylcellulose) (HPC)) 100 % of control; under setting [10], 110 % of control.
Take `O=C(CNC1=NCCN1)Nc1ccc(NC(=O)c2ccc(C(=O)Nc3ccc(NC(=O)CNC4=NCCN4)cc3)cc2)cc1`: the T/C was 114 % of control (dose: 30.0 mg/kg/injection, schedule: Q01DX Z (ip), vehicle: water); 120 % of control (dose: 40.0 mg/kg/injection, schedule: Q01DX Z (ip), vehicle: water); 121 % of control (dose: 50.0 mg/kg/injection, schedule: Q01DX Z (ip), vehicle: water); 124 % of control (dose: 62.5 mg/kg/injection, schedule: Q01DX Z (ip), vehicle: water); 118 % of control (dose: 125.0 mg/kg/injection, schedule: Q01DX Z (ip), vehicle: water); 109 % of control (dose: 250.0 mg/kg/injection, schedule: Q01DX Z (ip), vehicle: water). Further, the T/C (dose: 500.0 mg/kg/injection, schedule: Q01DX Z (ip), vehicle: water) was 106 % of control.
For the compound `O=[N+]([O-])c1sc2ccccc2c1O`, the T/C reads like this: (dose: 12.5 mg/kg/injection, schedule: Q01DX009 (ip), vehicle: saline with Tween-80) 99 % of control; (dose: 25.0 mg/kg/injection, schedule: Q01DX009 (ip), vehicle: saline with Tween-80) 99 % of control.
With `NCCCCS(=O)(=O)Nc1ccc(Nc2c3ccccc3nc3cc([N+](=O)[O-])ccc23)cc1`, the T/C is 117 % of control (dose: 2.1 mg/kg/injection, schedule: Q01DX009 (ip), vehicle: saline); 121 % of control (dose: 3.1 mg/kg/injection, schedule: Q01DX009 (ip), vehicle: saline); 123 % of control (dose: 16.0 mg/kg/injection, schedule: Q01DX009 (ip), vehicle: saline); 158 % of control (dose: 25.0 mg/kg/injection, schedule: Q01DX009 (ip), vehicle: saline); 111 % of control (dose: 25.0 mg/kg/injection, schedule: Q01DX009 (sc), vehicle: saline); 228 % of control (dose: 50.0 mg/kg/injection, schedule: Q01DX009 (ip), vehicle: saline). Besides, the T/C (dose: 50.0 mg/kg/injection, schedule: Q01DX009 (sc), vehicle: saline) was 118 % of control; the T/C (dose: 100.0 mg/kg/injection, schedule: Q01DX009 (ip), vehicle: saline) was 266 % of control; the T/C (dose: 100.0 mg/kg/injection, schedule: Q01DX009 (sc), vehicle: saline) was 175 % of control; the T/C (dose: 200.0 mg/kg/injection, schedule: Q01DX009 (sc), vehicle: saline) was 163 % of control.
